Reference: patent publication US20210187013A1, “Methods of Treating and Preventing Cancer by Disrupting the Binding of Copper in the Map Kinase Pathway” (DUKE UNIVERSITY, priority 2012, published 2021)
Values belong to the compound of their own block, whether it stands above or below them.

Key:
[1] = system: Erk1/2 phosphorylation in Drosophila S2 cells; assay: Insulin-stimulated Erk1/2 phosphorylation in S2 cells after preincubation with chelator or silver (immunoblot); format: cell-based; settings: then human insulin 25 μg/mL
Description: The copper transporter Ctr1 was identified as one of approximately 300 genes that when knocked down in S2 insect cells reduced phosphorylation of Erk (see, e.g., Friedman, A. and Perrimon, N. (2006) Nature 444:230-234). To explore whether both Ctr11 and the associated Cu^+ transport function are important for Ras signaling to Erk1/2, Cu^+-specific chelation was used to impose copper deficiency on cultured fly S2 cells, S2 cells used for the no-treatment and insulin-only treatment conditions were left in basal medium (Schneider's medium with 10% fetal bovine serum) during the preincubation. S2 cells used for the other treatment conditions were preincubated for 1 hour with chelator or silver as follows: 10 μM tetrathiomolybdate (TTM) and 250 μM bathocupronine disulfonate (BCS) for copper chelation experiments, 10 μM ferrozine, and 250 μM bathophenanthroline disulfonate (BPS) for iron chelation, and 10 μM silver nitrate. Cells were stimulated with human insulin at a concentration of 25 μg/mL of medium. […] (FIG. 3A). […] (FIG. 3B). […] (FIG. 3C).

[2] = target: T1, recombinant GST-tagged human Mek1 (Homo sapiens, UniProt Q02750); assay: Mek1 in vitro kinase assay (phosphorylation of kinase-dead Erk2); format: biochemical
T1 construct: made in house; host or cells: E. coli BL21(DE3)
T1 sequence (Q02750 whole entry): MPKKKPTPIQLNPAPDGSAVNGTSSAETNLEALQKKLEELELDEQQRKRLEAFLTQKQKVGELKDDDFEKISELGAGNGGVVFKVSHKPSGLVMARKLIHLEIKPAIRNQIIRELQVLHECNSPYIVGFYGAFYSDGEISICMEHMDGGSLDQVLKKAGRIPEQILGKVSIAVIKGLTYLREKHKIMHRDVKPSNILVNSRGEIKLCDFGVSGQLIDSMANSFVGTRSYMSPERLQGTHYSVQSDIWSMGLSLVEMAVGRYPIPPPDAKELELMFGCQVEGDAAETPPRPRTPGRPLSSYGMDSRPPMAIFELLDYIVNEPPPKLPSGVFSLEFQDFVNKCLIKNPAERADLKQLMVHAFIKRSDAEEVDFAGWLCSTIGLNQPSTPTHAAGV
Procedure: Mek1 requires copper for kinase activity in vitro (FIG. 8 and Turski, M. L. et al. (2012), supra). To determine the role copper plays in the stimulation of Mek1-dependent phosphorylation of Erk1/2, a series of in vitro experiments were carried out. For these experiments, purified human Mek1 protein was incubated with a kinase-dead isoform of hErk2 so that assessment of Erk2 phosphorylation mediated by Mek1 could be made in the absence of Erk2 autophosphorylation. Seger, R. et. al. (1991) Proc. Natl. Acad. Sci. U.S.A. 88:6142-6146.
Human Erk2 and human Mek1 were obtained from Addgene and cloned into pGEX4T3 and pGEX6P1 from GE Life Sciences, respectively. Recombinant GST-human Erk2 (hErk2) and GST-human Mek1 (hMek1) were purified from BL21(DE3) bacteria as previously described. […] The concentration was determined using the Bio-Rad DC protein assay (Bio-Rad, Hercules, United States).
(§1) Modified version of Mek1 and Erk2 in vitro kinase assay were performed as described previously. […] Reactions were quenched with 5× Laemmli buffer, and a third of the reaction mixture was analyzed by SDS-PAGE via subsequent Western blotting with phosphospecific antibodies. […] Reactions were quenched with 5× Laemmli buffer, and a third of the reaction mixture was analyzed by SDS-PAGE via Western blotting with phosphospecific antibodies.

recombinant GST-hErk2 = target: T2, recombinant GST-hErk2 (Homo sapiens, UniProt P28482); assay: Erk2 in vitro kinase assay (phosphorylation of MBP); format: biochemical; settings: increasing amounts of CuSO4; wild-type Erk2
T2 construct: made in house; host or cells: E. coli BL21(DE3)
T2 sequence (P28482 whole entry): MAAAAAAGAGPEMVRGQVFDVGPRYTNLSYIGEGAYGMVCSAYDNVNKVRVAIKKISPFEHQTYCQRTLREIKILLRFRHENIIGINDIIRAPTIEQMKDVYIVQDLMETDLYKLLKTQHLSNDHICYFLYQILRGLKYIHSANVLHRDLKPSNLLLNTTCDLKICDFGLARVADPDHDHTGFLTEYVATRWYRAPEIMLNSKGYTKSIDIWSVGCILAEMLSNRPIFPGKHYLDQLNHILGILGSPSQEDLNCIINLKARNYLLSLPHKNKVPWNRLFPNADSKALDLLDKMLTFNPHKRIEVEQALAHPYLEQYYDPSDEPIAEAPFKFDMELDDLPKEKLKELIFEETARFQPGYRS
Procedure: Human Erk2 and human Mek1 were obtained from Addgene and cloned into pGEX4T3 and pGEX6P1 from GE Life Sciences, respectively. Recombinant GST-human Erk2 (hErk2) and GST-human Mek1 (hMek1) were purified from BL21(DE3) bacteria as previously described. (see Heise, C. J. (2006) Methods 40:209-212; Levin-Salomon, V. et al. (2008) J. Biol. Chem. 283:34500-34510). Specifically, 500 mL of LB was inoculated with BL21(DE3) bacteria transformed with pGEX4T3-hErk2 or pGEX6P1-hMek1 and allowed to grow to an optical density of 0.6 at 600 nm (OD600). GST-hErk2 was induced by IPTG (0.4 mM) at 37° C. for 4 hours, while GST-hMek1 was induced by IPTG (1 mM) for 14 hour at 25° C. before collection by ultracentrifugation. […] and GST-hMek1 pellets were resuspended in 50 mL of 1×PBS-1% Triton X-100 plus a protease inhibitor tablet and sonicated for bacterial lysis. […] The concentration was determined using the Bio-Rad DC protein assay (Bio-Rad, Hercules, United States).
as §1

recombinant Mek1 = target: T3, recombinant Mek1 (Rattus norvegicus, UniProt Q01986); assay: Equilibrium dialysis copper binding stoichiometry of recombinant Mek1
T3 construct: GST (N, cleaved yes); made in house; host or cells: E. coli BL21-CodonPlus (DE3)-RIPL
T3 sequence (Q01986 whole entry): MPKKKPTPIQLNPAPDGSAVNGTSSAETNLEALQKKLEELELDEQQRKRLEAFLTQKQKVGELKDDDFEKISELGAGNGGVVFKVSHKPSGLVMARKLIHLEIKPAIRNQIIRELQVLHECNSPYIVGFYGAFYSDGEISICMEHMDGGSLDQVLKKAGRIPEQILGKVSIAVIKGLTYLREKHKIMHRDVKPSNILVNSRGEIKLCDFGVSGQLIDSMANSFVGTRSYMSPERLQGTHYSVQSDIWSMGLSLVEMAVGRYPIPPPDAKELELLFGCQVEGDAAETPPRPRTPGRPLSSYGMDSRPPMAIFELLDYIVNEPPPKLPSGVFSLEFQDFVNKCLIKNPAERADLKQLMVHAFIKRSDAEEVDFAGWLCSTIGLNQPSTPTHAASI
Procedure: To investigate the nature of copper binding to Mek1, purified recombinant Mek1 was used for in vitro copper binding stoichiometry and binding affinity experiments. In vitro copper-binding experiments were carried out using the rat Mek1 coding sequence, which was PCR amplified using the pCMV-HAMek1 construct and cloned into the pGex6P-1 vector (GE Healthcare Life Sciences, Waukesha, United States). The resulting plasmid, pGex69-1Mek1, was transformed into BL21-CodonPlus (DE3)-RIPL cells from Stratagene. Recombinant, glutathione S-transferase (GST)-tagged Mek1 was purified by affinity chromatography using GSH agarose beads, followed by on-column Pre Scission protease cleavage of the GST tag. Further purification was achieved using MonoQ anion-exchange chromatography that served to remove the majority of the contaminating proteins, including cleaved GST tags that were not retained on the GSH column. […] Protein concentrations were determined by quantitative amino acid analysis with a Beckman 6300 analyzer (Beckman Coulter, Brea, United States) after hydrolysis in 5.7 N HCl at 110° C. in vacuo. Equilibrium dialysis experiments were conducted as described in Horng, Y. C. et al. (2006) J. Biol. Chem. 280:34113-34122. Recombinant Mek1 (2.5 to 10 μM in 20 mM Tris [pH 7.2]) was dialyzed, using a dialysis tube with 10-kDa molecular mass cutoff, against CuCl2 concentrations ranging from 0.25 to 15 μM in 20 mM Tris (pH 7.2)-100 mM NaCl overnight at 4° C. with slow stirring. Copper levels associated with Mek1 and the dialysate were quantified by inductively coupled plasma mass spectroscopy after digestion with 50% HNO3 at 65° C. In specific experiments, Cu^2+ was introduced as a Cu^2+-histidine complex (His complex) to preclude Cu^2+ hydrolysis and precipitation.
However, the inclusion of 0.1 mM EDTA reduced the Cu content to ˜1.5 molar equivalents. Dialysis of Mek1 against 2 μM Cu^2+-4 μM His complex, followed by a subsequent dialysis step in 0.1 mM EDTA, reduced the copper content to approximately 2 molar equivalents. Inclusion of […] when only Cu^2+ was present. […] In a separate series of equilibrium dialysis experiments in which the Cu^2+ content was varied from […] to 0.15 μM, the maximal copper content associated with Mek1 plateaued near ˜2.5 molar equivalent (FIG. 7B). […] Under these same conditions, Cu^2+ binding is observed with albumin, a known Cu^2+-binding protein, but not lysozyme or thyroglobulin.

[3] = Cu2+ affinity of ligands used in the PAR competition study; format: physicochemical; settings: 1:1 complex
Procedure: To obtain a precise binding affinity, a series of ligand competition studies using PAR were conducted. PAR is a chromogenic chelator forming colored complexes with metal ions. Cu^2+ binding affinity for Mek1 was estimated using competition experiments similar to those described in Zimmermann, M. et. al. (2009) Biochemistry 48:11640-11654, with the divalent metal ligand PAR [4-(2-pyridylazo)resorcinol]. The quantitative release of the 1:1 Cu^2+-/PAR complex on titration of apo-Mek1 was monitored spectrophotometrically at 500 nm (DU 600 spectrophotometer, Beckman Coulter, Brea, United States) in 20 mM Tris (pH 7.2)-100 mM NaCl.
Bidentate PAR forms a 1:1 complex with Cu^2+.
Control titrations under the same pH and ionic strength buffer conditions were performed with EDTA and bovine serum albumin (BSA) to validate the Cu^2+-PAR titration study. Both EDTA and BSA are spectrally silent, with known dissociation constants. EDTA also served to calibrate Cu^2+-PAR affinity relative to the reaction condition used for the experiments.

[4] = system: BRaf^V600E-transformed MEFs; assay: Tumor growth in mice injected with BRaf^V600E-transformed MEFs; format: in vivo; settings: 2 mg/day oral TM
Description: FIGS. 12A-12C are graphs showing that copper is required for BRaf^V600E-driven tumorigenesis.
Copper is provided primarily through diet. […] Similar copper-reducing strategies may even hold promise as a way to preemptively reduce the incidence of melanoma in high-risk populations. In this regards, there are well-established approaches to regulate the level of copper in humans. Specifically, Wilson's Disease is characterized by a mutation in the copper-transporting gene ATP7B that results in elevated levels of copper in the body (see, e.g., Das, S. K. and Ray, K. (2006) Nat. Clin. Pract. Neurol. 2:482-493). This disease is treated by first lowering copper levels with copper chelators D-penicillamine, trientine or investigative drugs such as ammonium tetrathiomolybdate (TM). Copper levels are then maintained by a copper-restricted diet (e.g., avoidance of copper-rich foods such as shellfish, nuts, chocolate, liver and cooking in copperware) and either zinc acetate, to block copper absorption, or low dose copper chelators (see, e.g., Das, S. K. and Ray, K. (2006), supra). To evaluate if reducing dietary copper could negatively impact melanoma, mice injected with BRaf^V600E-transformed MEFs were either untreated as a control or treated with oral TM to chelate dietary copper.

[5] = system: Erk1/2 phosphorylation in mouse embryonic fibroblasts (MEFs); assay: Insulin-stimulated Erk1/2 phosphorylation in Ctr1+/+ and Ctr1−/− MEFs; format: cell-based
Procedure: Ctr1^+/+ and Ctr1^−/− mouse embryonic fibroblasts (MEFs) and insulin or fibroblast growth factor (FGF) stimulation experiments. To determine whether copper plays a role in the activation of Erk1/2, which is phosphorylated by Mek1, Ctr1^+/+ and Ctr1^−/− mouse embryonic fibroblasts (MEFs) were evaluated for insulin-stimulated ERK1/2 phosphorylation. Isolation and culture of Ctr1^+/+ and Ctr1^−/− cells were done as described in Lee, J. et al. (2002) J. Biol. Chem. 30:322-329. Insulin or fibroblast growth factor (FGF) stimulation experiments were done with plates measuring […], with one plate per time point. Cells were allowed to reach ˜95% confluence and then serum starved for 16 to 48 hours. Recombinant human insulin (Invitrogen, Carlsbad, United States) was added at a final concentration of 200 nM, and recombinant human basic FGF (Invitrogen, Carlsbad, United States) was added at a final concentration of 10 ng/ml, with the exception of the time zero plate. […]

[6] = S2 cells preincubated 1 hour with 10 μM agent
[7] = S2 cells preincubated 1 hour with 250 μM agent

Compound: O=[N+]([O-])[O-].[Ag+] [Ag, silver nitrate]
insulin-stimulated Erk1/2 phosphorylation [1, 6]: clearly diminished the levels of insulin-stimulated Erk1/2 phosphorylation

Compound: Cc1cc(-c2ccc(S(=O)(=O)O)cc2)c2ccc3c(-c4ccc(S(=O)(=O)O)cc4)cc(C)nc3c2n1 [BCS, bathocupronine disulfonate]
insulin-stimulated Erk1/2 phosphorylation [1, 7]: reduced the levels of insulin-stimulated Erk1/2 phosphorylation

Mek1 kinase activity, times greater ([2]; 2.5 μM CuSO4, 22° C., 30 minutes): ~20 times
Compound: O=S(=O)([O-])[O-].[Cu+2] [CuSO4]

Erk2 phosphorylation of MBP (recombinant GST-hErk2): no effect | bound copper content of Mek1 (recombinant Mek1; dialysis against 2 μM Cu2+-4 μM His complex, then dialysis in 0.1 mM EDTA): approximately 2 molar equivalents | bound copper content of Mek1 (recombinant Mek1; dialysis against 2 μM Cu2+, as-isolated ratio ~0.5): ~2.5 molar equivalents | bound copper content of Mek1 (recombinant Mek1; dialysis with inclusion of 0.1 mM EDTA): ~1.5 molar equivalents | bound copper content of Mek1 (recombinant Mek1; only Cu2+ present (comparison with Zn(II) and Fe(II) inclusion)): 2.6 | maximal copper content associated with Mek1 (plateau) (recombinant Mek1; separate dialysis series, Cu2+ content varied from 0.11 to 0.15 μM): ~2.5 molar equivalent
Compound: [Cl][Cu][Cl] [Cu^2+, CuCl2]

affinity of Cu2+-PAR complex (formation constant β) [3]: 3.2×10^17
Compound: Oc1ccc(N=Nc2ccccn2)c(O)c1 [PAR, 4-(2-pyridylazo)resorcinol]

Compound: [NH4+].[NH4+].[SH-].[SH-].[S]=[Mo]=[S] [TM, ammonium tetrathiomolybdate]
tumor size versus control tumors at termination of the experiment [4]: nearly five times smaller than the control tumors

Compound: [SH-].[SH-].[S]=[Mo]=[S] [TTM, tetrathiomolybdate, reference compound]
Mek1 kinase activity in the presence of 2.5 μM CuSO4 ([2]; 50 μM TTM in the presence of CuSO4): blunted | insulin-stimulated Erk1/2 phosphorylation [1, 6]: reduced the levels of insulin-stimulated Erk1/2 phosphorylation

Compound: [Cu] [copper]
insulin-stimulated Erk1/2 phosphorylation ([5]; Ctr1+/+ cells, copper added): No additional stimulation was observed | insulin-stimulated Erk1/2 phosphorylation ([5]; Ctr1−/− MEFs preincubated with 25 μM copper for 1 hour prior to insulin stimulation): increased insulin-stimulated Erk1/2 phosphorylation, though not to the same levels as Ctr1^+/+ MEFs

Compound: O=S(=O)([O-])c1ccc(-c2nnc(-c3ccccn3)nc2-c2ccc(S(=O)(=O)[O-])cc2)cc1.[Na+].[Na+] [ferrozine]
insulin-stimulated Erk1/2 phosphorylation [1, 6]: did not reduce insulin-stimulated Erk1/2 phosphorylation

Compound: bathophenanthroline disulfonate [BPS]
insulin-stimulated Erk1/2 phosphorylation [1, 7]: did not reduce insulin-stimulated Erk1/2 phosphorylation
